Data from article PMC11240139, “Exploring the antitumor potential of novel quinoline derivatives via tubulin polymerization inhibition in breast cancer; design, synthesis and molecular docking” (RSC Advances, 2024).

Experiments:
Test in all cases: NCI-60 SRB cytotoxicity screen
Format in all cases: cell-based
[1] = test system: SK-MEL-5 (melanoma); conditions: Homo sapiens; SK-MEL-5, single dose 10 μM; read-out: growth inhibition (GI%)
[2] = test system: NCI-H460 (non-small cell lung cancer); conditions: Homo sapiens; NCI-H460, single dose 10 μM; read-out: growth inhibition (GI%)
[3] = test system: NCI-H23 (non-small cell lung cancer); conditions: Homo sapiens; NCI-H23, single dose 10 μM; read-out: growth inhibition (GI%)
[4] = test system: SNB-19 (CNS cancer); conditions: Homo sapiens; SNB-19, single dose 10 μM; read-out: growth inhibition (GI%)
[5] = test system: MDA-MB-435 (melanoma); conditions: Homo sapiens, MDA-MB-435, read-out: growth inhibition (GI%)
[6] = test system: 786-0 (renal cancer); conditions: Homo sapiens; 786-0, single dose 10 μM; read-out: growth inhibition (GI%)
[7] = test system: HT29 (colon cancer); conditions: Homo sapiens, HT-29; HT29, single dose 10 μM; read-out: growth inhibition (GI%)
[8] = test system: TK-10 (renal cancer); conditions: Homo sapiens; TK-10, single dose 10 μM; read-out: growth inhibition (GI%)
[9] = test system: BT-549 (breast cancer); conditions: Homo sapiens; BT-549, single dose 10 μM; read-out: growth inhibition (GI%)
[10] = test system: SR (leukemia); conditions: single dose 10 μM; for inhibition at 10 µM: read-out: growth inhibition (GI%)
[11] = test system: A498 (renal cancer); conditions: Homo sapiens; A498, single dose 10 μM; read-out: growth inhibition (GI%)
[12] = test system: LOX IMVI (melanoma); conditions: Homo sapiens, single dose 10 μM, read-out: growth inhibition (GI%)
[13] = test system: KM12 (colon cancer); conditions: Homo sapiens; KM12, single dose 10 μM; read-out: growth inhibition (GI%)
[14] = test system: NCI-H522 (non-small cell lung cancer); conditions: Homo sapiens; NCI-H522, single dose 10 μM; read-out: growth inhibition (GI%)
[15] = test system: MOLT-4 (leukemia); conditions: Homo sapiens; MOLT-4, single dose 10 μM; read-out: growth inhibition (GI%)
[16] = test system: IGROV1 (ovarian cancer); conditions: Homo sapiens, IGROV-1; IGROV1, single dose 10 μM; read-out: growth inhibition (GI%)
[17] = test system: ACHN (renal cancer); conditions: Homo sapiens, single dose 10 μM, read-out: growth inhibition (GI%)
[18] = test system: SF-539 (CNS cancer); conditions: Homo sapiens; SF-539, single dose 10 μM; read-out: growth inhibition (GI%)
[19] = test system: NCI/ADR-RES (ovarian cancer); conditions: Homo sapiens, single dose 10 μM, read-out: growth inhibition (GI%)
[20] = test system: MALME-3M (melanoma); conditions: Homo sapiens, single dose 10 μM, read-out: growth inhibition (GI%)
[21] = test system: SK-MEL-28 (melanoma); conditions: Homo sapiens; SK-MEL-28, single dose 10 μM; read-out: growth inhibition (GI%)
[22] = test system: M14 (melanoma); conditions: Homo sapiens; M14, single dose 10 μM; read-out: growth inhibition (GI%)
[23] = test system: CAKI-1 (renal cancer); conditions: Homo sapiens; CAKI-1, single dose 10 μM; read-out: growth inhibition (GI%)
[24] = test system: MDA-MB-468 (breast cancer); conditions: Homo sapiens; MDA-MB-468, single dose 10 μM; read-out: growth inhibition (GI%)
Protocol: The cytotoxic activity of the synthesized quinoline derivatives was determined by the national cancer institute (NCI, Bethesda, Maryland, USA) against 60 different cancer cell lines at a single high dose (10^−5 M) in the full NCI 60 cell panel using the sulforhodamine B assay for cell viability evaluation. In summary, 5 × 10^3 cells were in 96-well plate and incubated in complete media for 24 h. Cells were treated with 100 μL of media containing each newly synthesized compound. After drug exposure, cells were fixed by replacing media with 150 μL of 10% TCA and incubated at 4 °C for 1 h. The TCA solution was removed, and the cells were washed 5 times with distilled water. Aliquots of 70 μL SRB solution (0.4% w/v) were added and incubated in a dark place at room temperature for 10 min. The plates were washed 3 times with 1% acetic acid and allowed to air-dry overnight. Then, 150 μL of TRIS (10 mM) was added to dissolve protein-bound SRB stain. The absorbance was measured at 540 nm.% Cytotoxicity = [1 − (AVx/AVNC)] × 100where AVx denotes the average absorbance of the sample well and AVNC denotes the average absorbance of the negative control.
The methodology of the NCI anticancer screening has been described in details at (http://www.dtp.nci.nih.gov). The anticancer assay was performed in full NCI 60 cell lines derived from nine tumor subpanels, including leukemia, lung, colon, CNS, melanoma, ovarian, renal, prostate, and breast cancer cell lines.
The cell lines were first cultured for 48 h, after being exposed to a single dosage of the compound. Using the protein-binding dye sulforhodamine B dye, cell proliferation and viability were evaluated (SRB assay). The results were presented for each chemical as GI%. Compound that met NCI criteria for substantial activity were further evaluated using a five-dose experiment. The NCI60 cell lines were treated with the chemicals in this assay at five different concentration levels (0.01, 0.1, 1, 10, and 100 μM).

[25] = test system: SN12C (renal cancer); conditions: Homo sapiens, single dose 10 μM, read-out: growth inhibition (GI%)
[26] = test system: SW-620 (colon cancer); conditions: Homo sapiens; SW-620, single dose 10 μM; read-out: growth inhibition (GI%)
[27] = test system: MCF7 (breast cancer); conditions: Homo sapiens; MCF7, single dose 10 μM; read-out: growth inhibition (GI%)

CCc1cccc2cc(C=CC(=O)c3ccc(OC)c(OC)c3)c(Cl)nc12 [Compound 3b, 3-(2-Chloro-8-ethylquinolin-3-yl)-1-(3,4-dimethoxyphenyl)prop-2-en-1-one]
inhibition at 10 µM [1]: 23.2% | inhibition at 10 µM [2]: 27.7% | inhibition at 10 µM [3]: 20.2% | inhibition at 10 µM [4]: 54.4% | inhibition at 10 µM [5]: 17.1% | inhibition at 10 µM [6]: 25.7% | inhibition at 10 µM [7]: 26.9% | inhibition at 10 µM [8]: < 10% | inhibition at 10 µM [9]: 50.3% | growth inhibition (GI%) [10]: 80.06% | inhibition at 10 µM [10]: 80.1% | inhibition at 10 µM [11]: < 10% | inhibition at 10 µM [12]: 43.4% | inhibition at 10 µM [13]: 23.5% | inhibition at 10 µM [14]: 41.5% | inhibition at 10 µM [15]: 49.2% | inhibition at 10 µM [16]: < 10% | inhibition at 10 µM [17]: 24.5% | inhibition at 10 µM [18]: 99.4% | inhibition at 10 µM [19]: 45.8% | inhibition at 10 µM [20]: < 10% | inhibition at 10 µM [21]: < 10% | inhibition at 10 µM [22]: < 10% | inhibition at 10 µM [23]: 40.2% | inhibition at 10 µM [24]: 39.8% | inhibition at 10 µM [25]: 23.7% | inhibition at 10 µM [26]: 72.2% | inhibition at 10 µM [27]: 37.1%

CCc1cccc2cc(-c3cc(-c4ccc(OC)cc4)[nH]c(=S)c3C#N)c(Cl)nc12 [Compound 5a, 4-(2-Chloro-8-ethylquinolin-3-yl)-6-(4-methoxyphenyl)-2-thioxo-1,2-dihydropyridine-3-carbonitrile]
inhibition at 10 µM [1]: < 10% | inhibition at 10 µM [2]: < 10% | inhibition at 10 µM [3]: 11.8% | inhibition at 10 µM [4]: 13.2% | inhibition at 10 µM [5]: < 10% | inhibition at 10 µM [6]: < 10% | inhibition at 10 µM [7]: < 10% | inhibition at 10 µM [8]: < 10% | inhibition at 10 µM [9]: 20.4% | inhibition at 10 µM [10]: 11.6% | inhibition at 10 µM [11]: < 10% | inhibition at 10 µM [12]: < 10% | inhibition at 10 µM [13]: < 10% | inhibition at 10 µM [14]: 19.6% | inhibition at 10 µM [15]: 12.7% | inhibition at 10 µM [16]: 12.9% | inhibition at 10 µM [17]: < 10% | inhibition at 10 µM [18]: < 10% | inhibition at 10 µM [19]: < 10% | inhibition at 10 µM [20]: < 10% | inhibition at 10 µM [21]: < 10% | inhibition at 10 µM [22]: < 10% | inhibition at 10 µM [23]: 44.7% | inhibition at 10 µM [24]: 18.7% | inhibition at 10 µM [25]: 10.3% | inhibition at 10 µM [26]: < 10% | inhibition at 10 µM [27]: 20.8%
